This note sets out measurements from US20210040533A1, “METHOD FOR IDENTIFYING TARGET GENE OF TEST SUBSTANCE” (DRUG GENOMICS, LTD., priority 2018, published 2021).

This experiment concerns CBS138 strain (wild strain). In words: Determination of 50% inhibitory concentration of antifungal drug on wild strain (turbidity at OD 600). The format is cell-based, Candida glabrata. Conditions: Nakaseomyces glabratus, SD medium, 30° C., 20 hours, turbidity at OD 600 decreased to about 50%.

`CN(C/C=C/C#CC(C)(C)C)Cc1cccc2ccccc12` [terbinafine] registered an IC50 of 48 µM. The same measure for `OC(Cn1cncn1)(Cn1cncn1)c1ccc(F)cc1F` [fluconazole]: 50 µM.

In general, IC50 refers to the point on the concentration scale where inhibition reaches its midpoint.
